“And” between values parts separate entries of the source, which are not always exact repeats. Equal values may be shown once. Read-outs that look alike come from different tables or passages of the source.
Tests used:
SMARCA4 = SMARCA4 (Homo sapiens, UniProt P51532); test: SMARCA4 capillary electrophoresis protein assay in RKO cells; type: cell-based; design: endogenous in cells; host or cells: RKO, HCT116, LU99, HCC-364, HCT-15, HCC4006, SK-N-AS; conditions: mean ± SD; for Dmax: RKO
Method: (§1) 130,000–200,000 cells were seeded in 24-well plates and incubated until settled down or overnight. Compounds were dissolved in DMSO and added to cells in indicated concentrations using a digital dispenser following an optional media change. Cells were incubated for 4 or 18 h as indicated. For SMARCA2/4 half-life determination, 150,000 or 200,000 cells were seeded in 24-well plates. The next day, 50 µg/ml cycloheximide (Sigma) was added and cells were incubated for 1–24 h. For SMARCA2/4 re-synthesis measurements, 200,000 cells were seeded in 24-well plates. The next day, 100 nM compound 6 was added for 4 h to degrade SMARCA2/4, and a sample was taken as baseline for normalisation. To allow re-synthesis, a VHL binder (compound 32, 25 or 50 µM) was then added for 3 or 24 h. Medium was removed, cells were washed with PBS and lysed with 80 µl Lysis Buffer (MSD Tris Lysis Buffer (#R60TX-2) + Halt Inhibitor Cocktail (100x) + Benzonase 0.5 µL/ml). Samples were frozen at −80 °C and thawed at room temperature before use. Samples were transferred to a V-bottom plate and insoluble debris was pelleted by centrifugation for 5 min at maximum speed. The supernatant was transferred to a fresh plate. Master Mix and Ladder were prepared according to manufacturer’s instructions for 12–230 kDa Wes Separation Module, 8 × 25 capillary cartridges, Protein Simple #SM-W004 with Anti-Rabbit Detection Module for Wes, Peggy Sue or Sally Sue, Protein Simple #DM-001. 4.8 µl lysate were mixed with 1.2 µl Master Mix to achieve a protein concentration of ~0.5 µg/µl. Antibodies were diluted in Antibody Diluent II (SMARCA2 Sigma #HPA029981 RRID:AB_10602406 1:25–100, SMARCA4 Cell Signalling #49360 clone D1Q7F RRID:AB_2728743 1:15–120 or Abcam #ab110641 clone EPNCIR111A RRID:AB_10861578 1:60, GAPDH Abcam #ab9485 RRID:AB_307275 1:250). Wes plates were prepared and run according to manufacturer’s instructions. Proteins were quantified with accompanying Compass Software. SMARCA2/4 protein levels were normalised to GAPDH. […] Where applicable, curves were fitted using a 4-parametric logistic model.

SMARCA2 = SMARCA2 (Homo sapiens, UniProt P51531); test: SMARCA2 capillary electrophoresis protein assay in RKO cells; type: cell-based; design: endogenous in cells; host or cells: RKO, NCI-H1568, A549, HCT116, LU99, HCC-364, HCT-15, HCC4006, SK-N-AS; conditions: mean ± SD; for Dmax: RKO
Method: as §1, with “Cells were incubated for 4 or 18 h as indicated.” left out, “The next day, 50 µg/ml cycloheximide (Sigma) was added and cells were incubated for 1–24 h.” left out, “The next day, 100 nM compound 6 was added for 4 h to degrade SMARCA2/4, and a sample was taken as baseline for normalisation. To allow re-synthesis, a VHL binder (compound 32, 25 or 50 µM) was then added for 3 or 24 h.” left out, “Antibodies were diluted in Antibody Diluent II (SMARCA2 Sigma #HPA029981 RRID:AB_10602406 1:25–100, SMARCA4 Cell Signalling #49360 clone D1Q7F RRID:AB_2728743 1:15–120 or Abcam #ab110641 clone EPNCIR111A RRID:AB_10861578 1:60, GAPDH Abcam #ab9485 RRID:AB_307275 1:250).” left out

PBRM1BD5 = target: T1, PBRM1BD5 (Homo sapiens, UniProt Q86U86); test: TR-FRET ternary complex affinity and cooperativity, PBRM1; type: binding; conditions: TR-FRET competition for PBRM1BD5, without VCB; mean ± SD; read-out: TR-FRET PBRM1BD EC50
T1 construct: GST (TEV site) (N); His6 (TEV site) (N, cleaved yes); made in house; host or cells: PBRM1^BD5: Escherichia coli BL21(DE3)

[1] = target: VCB: PROTAC: SMARCA4^BD ternary complex (Homo sapiens, UniProt P40337+P51532); test: TR-FRET ternary complex affinity and cooperativity, SMARCA4; type: binding; design: P51532, residues 1448–1569 with additional N-terminal SM residues; GST (TEV site) (N); His6 (TEV site) (N, cleaved yes); made in house; host or cells: SMARCA4^BD: Escherichia coli BL21(DE3)
[2] = target: VCB: PROTAC: SMARCA2^BD ternary complex (Homo sapiens, UniProt P40337+P51531); test: TR-FRET ternary complex affinity and cooperativity, SMARCA2; type: binding; design: P51531-2, residues 1373-1493 with additional N-terminal SM residues; GST (TEV site) (N); His6 (TEV site) (N, cleaved yes); made in house; host or cells: SMARCA2^BD: Escherichia coli BL21(DE3)
[3] = TR-FRET competition for SMARCA4BD, + VCB, mean ± SD, read-out: TR-FRET Ternary SMARCA4BD EC50 (PROTAC + VCB)
[4] = PROTAC + VCB, individual replicates, read-out: Ternary SMARCA2 BD EC50 (PROTAC + VCB)
[5] = TR-FRET competition for SMARCA2BD, + VCB, mean ± SD, read-out: TR-FRET Ternary SMARCA2BD EC50 (PROTAC + VCB)
[6] = PROTAC + VCB, individual replicates, read-out: Ternary SMARCA4 BD EC50 (PROTAC + VCB)

Sequence of SMARCA4 (P51532 whole entry): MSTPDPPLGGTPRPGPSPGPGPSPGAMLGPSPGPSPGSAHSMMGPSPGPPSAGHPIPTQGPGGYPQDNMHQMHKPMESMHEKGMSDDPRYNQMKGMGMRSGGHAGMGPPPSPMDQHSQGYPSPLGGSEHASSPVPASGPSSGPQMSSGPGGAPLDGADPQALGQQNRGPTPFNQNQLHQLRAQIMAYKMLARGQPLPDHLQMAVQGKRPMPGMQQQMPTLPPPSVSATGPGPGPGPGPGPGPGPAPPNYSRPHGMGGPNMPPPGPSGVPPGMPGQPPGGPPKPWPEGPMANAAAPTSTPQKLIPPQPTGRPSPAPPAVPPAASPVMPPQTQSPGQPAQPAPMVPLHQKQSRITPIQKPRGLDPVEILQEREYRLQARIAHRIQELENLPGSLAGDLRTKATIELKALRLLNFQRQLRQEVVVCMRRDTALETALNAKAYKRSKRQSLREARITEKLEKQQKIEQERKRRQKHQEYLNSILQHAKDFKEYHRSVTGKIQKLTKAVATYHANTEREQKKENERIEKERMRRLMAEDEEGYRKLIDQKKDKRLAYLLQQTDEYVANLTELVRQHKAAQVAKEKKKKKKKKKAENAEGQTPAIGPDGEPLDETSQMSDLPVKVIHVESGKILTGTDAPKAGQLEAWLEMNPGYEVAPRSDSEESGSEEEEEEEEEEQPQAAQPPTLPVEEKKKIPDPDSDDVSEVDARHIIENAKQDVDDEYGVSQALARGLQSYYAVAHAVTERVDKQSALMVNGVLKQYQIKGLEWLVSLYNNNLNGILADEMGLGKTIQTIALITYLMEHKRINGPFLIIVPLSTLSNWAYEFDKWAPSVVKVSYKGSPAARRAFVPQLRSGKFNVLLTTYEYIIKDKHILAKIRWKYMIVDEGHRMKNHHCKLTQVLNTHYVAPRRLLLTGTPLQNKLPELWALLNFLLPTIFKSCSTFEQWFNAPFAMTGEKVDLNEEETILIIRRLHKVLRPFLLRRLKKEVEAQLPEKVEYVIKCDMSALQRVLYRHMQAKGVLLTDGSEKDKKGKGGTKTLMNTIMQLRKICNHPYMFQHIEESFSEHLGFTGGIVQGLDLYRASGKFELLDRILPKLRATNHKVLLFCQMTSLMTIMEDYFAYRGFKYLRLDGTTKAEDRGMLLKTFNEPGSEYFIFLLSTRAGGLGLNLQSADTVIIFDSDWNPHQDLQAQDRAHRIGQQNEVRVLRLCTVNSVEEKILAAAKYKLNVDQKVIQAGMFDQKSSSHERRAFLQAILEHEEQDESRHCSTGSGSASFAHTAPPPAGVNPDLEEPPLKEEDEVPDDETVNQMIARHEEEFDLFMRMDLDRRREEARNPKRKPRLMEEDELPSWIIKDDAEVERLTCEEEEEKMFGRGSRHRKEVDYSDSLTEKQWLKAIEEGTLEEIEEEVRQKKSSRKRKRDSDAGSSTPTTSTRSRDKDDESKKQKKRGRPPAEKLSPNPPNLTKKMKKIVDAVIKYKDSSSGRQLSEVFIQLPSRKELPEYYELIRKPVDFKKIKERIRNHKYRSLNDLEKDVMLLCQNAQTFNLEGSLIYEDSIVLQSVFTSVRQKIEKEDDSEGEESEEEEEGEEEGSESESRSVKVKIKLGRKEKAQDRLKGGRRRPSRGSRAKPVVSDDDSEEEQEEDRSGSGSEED
Sequence of SMARCA2 (P51531 whole entry): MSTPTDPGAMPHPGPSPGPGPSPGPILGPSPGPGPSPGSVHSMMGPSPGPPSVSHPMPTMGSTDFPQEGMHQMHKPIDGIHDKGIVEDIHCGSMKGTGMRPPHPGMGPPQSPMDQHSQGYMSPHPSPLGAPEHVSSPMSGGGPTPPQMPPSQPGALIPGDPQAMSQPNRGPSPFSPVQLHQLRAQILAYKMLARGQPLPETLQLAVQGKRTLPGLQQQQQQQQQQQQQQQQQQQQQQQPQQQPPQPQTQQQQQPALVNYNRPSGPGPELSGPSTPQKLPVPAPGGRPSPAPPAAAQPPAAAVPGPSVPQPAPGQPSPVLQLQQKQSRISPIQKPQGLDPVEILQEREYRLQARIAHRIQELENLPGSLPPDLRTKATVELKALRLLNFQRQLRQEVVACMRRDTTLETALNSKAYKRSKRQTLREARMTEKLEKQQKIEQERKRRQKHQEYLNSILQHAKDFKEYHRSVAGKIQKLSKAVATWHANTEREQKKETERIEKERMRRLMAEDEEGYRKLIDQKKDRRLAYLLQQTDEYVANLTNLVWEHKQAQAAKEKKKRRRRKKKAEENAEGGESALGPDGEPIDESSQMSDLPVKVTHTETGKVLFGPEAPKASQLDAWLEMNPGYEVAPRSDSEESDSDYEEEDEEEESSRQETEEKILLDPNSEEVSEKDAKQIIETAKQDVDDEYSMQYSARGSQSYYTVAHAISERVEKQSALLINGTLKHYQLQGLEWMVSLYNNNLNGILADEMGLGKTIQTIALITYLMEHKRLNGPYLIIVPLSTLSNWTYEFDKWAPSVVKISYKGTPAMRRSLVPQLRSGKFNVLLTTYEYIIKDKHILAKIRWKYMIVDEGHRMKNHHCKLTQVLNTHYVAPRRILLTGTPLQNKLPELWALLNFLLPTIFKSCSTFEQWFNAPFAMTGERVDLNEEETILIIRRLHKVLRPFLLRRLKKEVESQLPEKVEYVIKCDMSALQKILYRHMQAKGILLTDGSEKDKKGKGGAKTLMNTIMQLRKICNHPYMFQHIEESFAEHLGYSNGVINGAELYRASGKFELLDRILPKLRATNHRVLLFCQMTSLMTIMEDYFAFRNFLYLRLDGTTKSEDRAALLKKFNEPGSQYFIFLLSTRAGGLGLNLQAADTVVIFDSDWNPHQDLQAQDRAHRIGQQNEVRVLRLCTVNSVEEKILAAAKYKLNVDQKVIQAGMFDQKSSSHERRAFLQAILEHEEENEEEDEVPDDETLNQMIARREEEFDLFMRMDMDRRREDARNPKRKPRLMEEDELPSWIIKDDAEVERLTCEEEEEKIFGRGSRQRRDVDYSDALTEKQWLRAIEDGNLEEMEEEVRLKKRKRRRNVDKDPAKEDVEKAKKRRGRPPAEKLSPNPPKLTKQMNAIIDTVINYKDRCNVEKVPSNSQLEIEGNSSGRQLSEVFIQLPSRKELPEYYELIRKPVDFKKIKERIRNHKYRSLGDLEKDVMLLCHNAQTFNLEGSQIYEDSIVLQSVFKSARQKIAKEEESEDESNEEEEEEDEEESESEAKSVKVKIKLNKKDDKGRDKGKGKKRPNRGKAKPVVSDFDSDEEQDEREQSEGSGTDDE
Sequence of VCB: PROTAC: SMARCA4^BD ternary complex (P51532 1448-1569): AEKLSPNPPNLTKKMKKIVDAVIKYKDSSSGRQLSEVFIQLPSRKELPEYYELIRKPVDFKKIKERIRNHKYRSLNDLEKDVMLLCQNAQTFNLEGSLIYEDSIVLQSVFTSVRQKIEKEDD
Sequence of VCB: PROTAC: SMARCA4^BD ternary complex (P40337 54-213): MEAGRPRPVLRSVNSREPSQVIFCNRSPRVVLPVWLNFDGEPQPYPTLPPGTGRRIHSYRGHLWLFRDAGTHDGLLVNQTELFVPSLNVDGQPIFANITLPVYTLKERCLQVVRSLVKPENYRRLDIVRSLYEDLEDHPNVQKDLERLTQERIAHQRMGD
Sequence of VCB: PROTAC: SMARCA4^BD ternary complex (Q15369 17-112 partner): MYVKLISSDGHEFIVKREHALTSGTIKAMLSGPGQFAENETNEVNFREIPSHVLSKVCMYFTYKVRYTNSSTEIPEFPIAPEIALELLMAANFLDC
Sequence of VCB: PROTAC: SMARCA4^BD ternary complex (Q15370 1-104 partner): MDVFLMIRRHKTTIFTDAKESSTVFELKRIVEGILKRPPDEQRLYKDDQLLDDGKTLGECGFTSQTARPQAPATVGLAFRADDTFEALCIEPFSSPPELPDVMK
Sequence of VCB: PROTAC: SMARCA2^BD ternary complex (P51531 with tags, fused parts or gaps isoform P51531-2): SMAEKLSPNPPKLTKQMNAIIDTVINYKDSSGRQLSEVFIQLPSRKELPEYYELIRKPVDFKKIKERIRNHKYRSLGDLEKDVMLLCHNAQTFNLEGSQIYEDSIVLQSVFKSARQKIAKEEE
Sequence of VCB: PROTAC: SMARCA2^BD ternary complex (P40337 54-213): as the sequence (P40337 54-213) above
Sequence of VCB: PROTAC: SMARCA2^BD ternary complex (Q15369 17-112 partner): as the sequence (Q15369 17-112 partner) above
Sequence of VCB: PROTAC: SMARCA2^BD ternary complex (Q15370 1-104 partner): as the sequence (Q15370 1-104 partner) above
T1 sequence (Q86U86 645-766): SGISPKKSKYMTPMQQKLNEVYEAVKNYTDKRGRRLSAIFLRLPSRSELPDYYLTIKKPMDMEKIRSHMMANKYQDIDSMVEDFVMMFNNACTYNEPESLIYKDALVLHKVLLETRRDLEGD

SMILES	DC50 (SMARCA4; RKO (4 h))	DC50 (SMARCA4; RKO (18 h))	Dmax (SMARCA4; RKO (4 h))	Dmax (SMARCA4; RKO (18 h))	DC50 (SMARCA2; RKO (4 h))	DC50 (SMARCA2; RKO (18 h))	Dmax (SMARCA2; RKO (4 h))	Dmax (SMARCA2; RKO (18 h))	EC50 (PBRM1BD5)	EC50 [1, 3]	EC50 [2, 4]	EC50 [2, 5]	SMARCA4 Dmax (SMARCA4; RKO (4 h))	SMARCA4 Dmax (SMARCA4; RKO (18 h))	SMARCA2 Dmax (SMARCA2; RKO (4 h))	SMARCA2 Dmax (SMARCA2; RKO (18 h))	EC50 [1, 6]
Cc1ncsc1-c1ccc([C@H](COCCN2CCC(c3ccc4c(c3)n(C3CCCC3)c3nc(=O)c5c(Br)cccc5n43)CC2)NC(=O)[C@@H]2C[C@@H](O)CN2C(=O)[C@@H](NC(=O)C2(N(C)C)CC2)C(C)(C)C)cc1 [compound 26]	81 ± 14 nM	83 ± 21 nM	61 ± 15%	82 ± 5%	12 ± 7 nM	6 ± 2 nM	77 ± 3%	82 ± 4%	22 ± 5 nM	56 ± 23 nM	13.6 nM and 14.3 nM and 15.5 nM and 15.9 nM and 16.4 nM and 11.2 nM and 10.2 nM and 21.5 nM and 22 nM and 6 nM and 9.26 nM	13 ± 5 nM	–	–	–	–	–
Cc1ncsc1-c1ccc([C@H](COCCCN2CCC(c3ccc4c(c3)n(C3CCCC3)c3nc(=O)c5c(Br)cccc5n43)CC2)NC(=O)[C@@H]2C[C@@H](O)CN2C(=O)[C@@H](NC(=O)C2(F)CC2)C(C)(C)C)cc1 [compound 27]	42 ± 3 nM	29 ± 6 nM	–	–	5 ± 2 nM	2 ± 1 nM	–	–	33 ± 7 nM	69 ± 12 nM	29.5 nM and 30.9 nM and 30.6 nM and 24.4 nM and 46.9 nM and 21.2 nM and 34.9 nM and 23.9 nM	29 ± 8 nM	55 ± 2%	83 ± 7%	70 ± 7%	85 ± 3%	63.8 nM and 63.4 nM and 53.1 nM and 76.7 nM and 81.7 nM and 82 nM
Cc1ncsc1-c1ccc(CNC(=O)[C@@H]2C[C@@H](O)CN2C(=O)[C@@H](NC(=O)C2(F)CC2)C(C)(C)C)c(OCCOCCOCCN2CCC(c3ccc4c(c3)n(C3CCCC3)c3nc(=O)c5c(Br)cccc5n43)CC2)c1 [compound 21]	21 ± 19 nM	83 ± 78 nM	–	–	> 25000 nM	106 ± 38 nM	–	–	76 ± 4 nM	130 ± 13 nM	138 nM and 122 nM and 143 nM	134 ± 11 nM	61 ± 16%	75 ± 3%	–	67± 8%	119 nM and 144 nM and 128 nM
Cc1ncsc1-c1ccc(CNC(=O)[C@@H]2C[C@@H](O)CN2C(=O)[C@@H](NC(=O)C2(F)CC2)C(C)(C)C)c(OCCOCCOCCOCCN2CCC(c3ccc4c(c3)n(C3CCCC3)c3nc(=O)c5c(Br)cccc5n43)CC2)c1 [compound 22]	54 ± 47 nM	77 ± 67 nM	–	–	175 ± 165 nM	148 ± 97 nM	–	–	103 ± 13 nM	89 ± 13 nM	95.1 nM and 86.8 nM and 90.2 nM and 144 nM	102 ± 27 nM	84 ± 1%	89 ± 5%	71 ± 25%	75 ± 8%	73.1 nM and 97.3 nM and 87.2 nM and 102 nM
Cc1ncsc1-c1ccc([C@H](COC(C)CN2CCC(c3ccc4c(c3)n(C3CCCC3)c3nc(=O)c5c(Br)cccc5n43)CC2)NC(=O)[C@@H]2C[C@@H](O)CN2C(=O)[C@@H](NC(=O)C2(N(C)C)CC2)C(C)(C)C)cc1 (some centres unmarked) [compound 10]	83 ± 22 nM	174 ± 72 nM	34 ± 6%	68 ± 15%	6 ± 3 nM	3 ± 3 nM	70 ± 2%	82 ± 5%	31 ± 1 nM	70 ± 16 nM	13.9 nM and 16.3 nM and 16.6 nM and 37.3 nM and 12.6 nM and 9.3 nM and 12.5 nM	15 ± 9 nM	–	–	–	–	69.6 nM and 88.2 nM and 77.2 nM and 49.4 nM
Cc1ncsc1-c1ccc([C@H](CCCCN2CCC(c3ccc4c(c3)n(C3CCCC3)c3nc(=O)c5c(Br)cccc5n43)CC2)NC(=O)[C@@H]2C[C@@H](O)CN2C(=O)[C@@H](NC(=O)C2(F)CC2)C(C)(C)C)cc1 [compound 25]	–	40 ± 16 nM	–	–	3 ± 1 nM	3 ± 1 nM	–	–	36 ± 12 nM	79 ± 9 nM	208 nM and 27.9 nM and 62.3 nM and 29 nM and 29.1 nM and 33.2 nM and 38.8 nM and 39.9 nM and 50.6 nM and 51.7 nM and 46 nM and 34.5 nM and 27.1 nM	43 ± 48 nM	–	52 ± 21%	66 ± 5%	80 ± 6%	69.7 nM and 82.3 nM and 75.3 nM and 90.7 nM
Cc1ncsc1-c1ccc([C@H](COC(C)(C)CN2CCC(c3ccc4c(c3)n(C3CCCC3)c3nc(=O)c5c(Br)cccc5n43)CC2)NC(=O)[C@@H]2C[C@@H](O)CN2C(=O)[C@@H](NC(=O)C2(F)CC2)C(C)(C)C)cc1 [compound 28]	> 25000 nM	159 ± 57 nM	–	–	17 ± 8 nM	5 ± 2 nM	–	–	24 ± 11 nM	76 ± 21 nM	34 nM and 37.9 nM and 38.6 nM and 39.5 nM and 28.8 nM and 36.1 nM and 40.6 nM and 27.9 nM and 35.6 nM and 32 nM	35 ± 4 nM	–	14 ± 42%	69 ± 4%	76 ± 11%	99.7 nM and 76.7 nM and 88 nM and 49.7 nM

— article PMC9551036, “A selective and orally bioavailable VHL-recruiting PROTAC achieves SMARCA2 degradation in vivo” (Nature Communications, 2022)
